One data set deals with SARS-CoV-2. Description: Antiviral activity against SARS Cov-2 pseudovirions assessed as inhibition of viral entry into 293/hACE2 cells at 2 uM relative to control. In kind it is functional, Severe acute respiratory syndrome coronavirus 2, 293T/ACE2. Also on record: scale not given: the % may be the effect or the level left.
A further data set relates to SARS-CoV. Description: Antiviral activity against SARS-CoV-1 infected in HAE cells assessed as inhibition of viral replication. Format: functional, organism-based. To be noted: Severe acute respiratory syndrome-related coronavirus.
A short description of data set [1]: Cytotoxicity in African green monkey Vero cells by MTT assay. In kind it is toxicity, cell-based. To be noted: chlorocebus sabaeus.

Bounds are passed on as bounds.

As to `CCc1ccccc1NC(=O)CSC(=O)NNC(=O)[C@H](Cc1c[nH]c2ccccc12)NC(=O)OC(C)(C)C`, the Activity with SARS-CoV-2 is on record as ~76%.
As for `CCC(CC)COC(=O)[C@H](C)NP(=O)(OC[C@@H]1O[C@](C#N)(c2ccc3c(N)ncnn23)[C@@H](O)[C@H]1O)Oc1ccccc1` (stereo partly drawn), the IC50 in the data set with SARS-CoV was 69 nM. Also, the CC50 in data set [1] is > 100000 nM.

Source of the values: ChEMBL document CHEMBL5316353, “Antitarget, Anti-SARS-CoV-2 Leads, Drugs, and the Drug Discovery-Genetics Alliance Perspective” (J Med Chem, 2023).
